Source: patent publication US6362188B1, “Farnesyl protein transferase inhibitors” (Schering Corporation, priority 1998, dated 2002)

Experiments:
[1] = system: Human tumor cells; experiment: Soft Agar Assay (anchorage-independent growth); type: cell-based; conditions: colony outgrowth in soft agar, stated as a range for the group
How it was run: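 Tumor cells suspended in 0.3% agarose over a 0.6% agarose base, both layers containing the same farnesyl transferase inhibitor concentration. Incubated 10-16 days at 37° C, 5% CO2; colonies stained with MTT (1 mg/mL in PBS) and counted, IC50 determined.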

| melting point | IC50 [1] | Compound |
| --- | --- | --- |
| 122 to 127 °C | 0.5 to 30 nM | CC(C)(C)OC(=O)N1CCN([C@H]2c3ccc(Cl)cc3CCc3cc(Br)cnc32)C[C@@H]1C(=O)N1CCC[C@H](Cn2ccnc2)C1 [Example 11] |
| 135 to 138 °C | 0.5 to 30 nM | CC(C)(C)OC(=O)N1CCN([C@@H]2c3ccc(Cl)cc3CCc3cc(Br)cnc32)C[C@@H]1C(=O)N1CCC[C@@H](Cn2ccnc2)C1 [Example 12] |
| 127 to 130 °C | 0.5 to 30 nM | CC(C)(C)OC(=O)N1CCN([C@H]2c3ccc(Cl)cc3CCc3cc(Br)cnc32)C[C@@H]1C(=O)N1CCC[C@@H](Cn2ccnc2)C1 [Example 13] |
| 126 to 128 °C | 0.5 to 30 nM | CC(C)OC(=O)N1CCN([C@@H]2c3ccc(Cl)cc3CCc3cc(Br)cnc32)C[C@@H]1C(=O)N1CCC[C@@H](Cn2ccnc2)C1 [Example 14] |
| 140 to 144 °C | 0.5 to 30 nM | O=C([C@H]1CN([C@@H]2c3ccc(Cl)cc3CCc3cc(Br)cnc32)CCN1C(=O)OC1CCCCC1)N1CCC[C@@H](Cn2ccnc2)C1 [Example 15] |
| 148 to 153 °C | 0.5 to 30 nM | CC(C)(C)NC(=O)N1CCN([C@@H]2c3ccc(Cl)cc3CCc3cc(Br)cnc32)C[C@@H]1C(=O)N1CCC[C@@H](Cn2ccnc2)C1 [Example 16] |
| 115 to 126 °C | 0.5 to 30 nM | CC(C)(C)OC(=O)N1CCN(C2c3ccc(Cl)cc3CCc3cccnc32)CC1C(=O)N1CCCC(Cn2ccnc2)C1 (centres unmarked) [Example 24] |
| 120 to 132 °C | 0.5 to 30 nM | Cc1nccn1CC1CCCN(C(=O)C2CN(C3c4ccc(Cl)cc4CCc4cccnc43)CCN2C(=O)OC(C)(C)C)C1 (centres unmarked) [Example 26] |
| 115 to 132 °C | 0.5 to 30 nM | Cc1cn(CC2CCCN(C(=O)C3CN(C4c5ccc(Cl)cc5CCc5cccnc54)CCN3C(=O)OC(C)(C)C)C2)cn1 (centres unmarked) [Example 28] |
| 108 to 113 °C | 0.05 to 30 nM | Cc1cn(CC2CCCCN(C(=O)C3CN(C4c5ccc(Cl)cc5CCc5cccnc54)CCN3C(=O)OC3CCCCC3)C2)cn1 (centres unmarked) [Example 47(CC)] |
| 111 to 140 °C | 0.5 to 30 nM | Cc1nccn1C[C@H]1CCCN(C(=O)[C@H]2CN([C@H]3c4ccc(Cl)cc4CCc4cccnc43)CCN2C(=O)NC(C)(C)C)C1 [Example 48] |
| 105 to 110 °C | 0.05 to 30 nM | Cc1cn(C[C@@H]2CCCN(C(=O)[C@H]3CN([C@H]4c5ccc(Cl)cc5CCc5cc(Br)cnc54)CCN3C(=O)Cc3ccc(F)cc3)C2)cn1 [Example 197] |
| 100 to 116 °C | 0.05 to 30 nM | Cc1cn(C[C@@H]2CCCN(C(=O)[C@H]3CN([C@H]4c5ccc(Cl)cc5CCc5cc(Cl)cnc54)CCN3C(=O)OC(C)(C)C)C2)cn1 [Example 227] |
| 115 to 128 °C | 0.05 to 30 nM | Cc1cn(C[C@@H]2CCCN(C(=O)[C@H]3CN([C@@H]4c5ccc(Cl)cc5CCc5cc(Cl)cnc54)CCN3C(=O)OC(C)(C)C)C2)cn1 [Example 228] |
| 102 to 113 °C | 0.05 to 30 nM | Cc1cn(C[C@H]2CCCN(C(=O)[C@H]3CN([C@H]4c5ccc(Cl)cc5CCc5cc(Cl)cnc54)CCN3C(=O)OC(C)(C)C)C2)cn1 [Example 229] |
| 121 to 127 °C | 0.05 to 30 nM | Cc1cn(CC2CCCN(C(=O)C3CN(C4c5ccc(Cl)cc5CCc5cc(Cl)cnc54)CCN3C(=O)OC(C)(C)C)C2)cn1 (centres unmarked) [Example 230] |
| 116 to 126 °C | 0.05 to 30 nM | Cc1cn(C[C@@H]2CCCN(C(=O)[C@H]3CN([C@H]4c5ccc(Cl)cc5CCc5cc(Cl)cnc54)CCN3C(=O)OC3CCCCC3)C2)cn1 [Example 255] |

| melting point | IC50 [1] | Compound |
| --- | --- | --- |
| 122 to 128 °C | 0.05 to 30 nM | Cc1cn(C[C@@H]2CCCN(C(=O)[C@H]3CN([C@@H]4c5ccc(Cl)cc5CCc5cc(Cl)cnc54)CCN3C(=O)OC3CCCCC3)C2)cn1 [Example 256] |
| 115 to 128 °C | 0.05 to 30 nM | Cc1cn(C[C@H]2CCCN(C(=O)[C@H]3CN([C@H]4c5ccc(Cl)cc5CCc5cc(Cl)cnc54)CCN3C(=O)OC3CCCCC3)C2)cn1 [Example 257] |
| 115 to 128 °C | 0.05 to 30 nM | Cc1cn(C[C@H]2CCCN(C(=O)[C@H]3CN([C@@H]4c5ccc(Cl)cc5CCc5cc(Cl)cnc54)CCN3C(=O)OC3CCCCC3)C2)cn1 [Example 258] |
| 126 to 135 °C | 0.05 to 30 nM | Cc1cn(C[C@@H]2CCCN(C(=O)[C@H]3CN([C@H]4c5ccc(Cl)cc5CCc5cc(F)cnc54)CCN3C(=O)OC(C)(C)C)C2)cn1 [Example 259] |
| 110 to 116 °C | 0.05 to 30 nM | Cc1cn(C[C@@H]2CCCN(C(=O)[C@H]3CN([C@@H]4c5ccc(Cl)cc5CCc5cc(F)cnc54)CCN3C(=O)OC(C)(C)C)C2)cn1 [Example 260] |
| 115 to 118 °C | 0.05 to 30 nM | Cc1cn(C[C@H]2CCCN(C(=O)[C@H]3CN([C@H]4c5ccc(Cl)cc5CCc5cc(F)cnc54)CCN3C(=O)OC(C)(C)C)C2)cn1 [Example 261] |
| 122 to 126 °C | 0.05 to 30 nM | Cc1cn(C[C@H]2CCCN(C(=O)[C@H]3CN([C@@H]4c5ccc(Cl)cc5CCc5cc(F)cnc54)CCN3C(=O)OC(C)(C)C)C2)cn1 [Example 262] |
| 116 to 123 °C | 0.05 to 30 nM | Cc1cn(CC2CCCN(C(=O)C3CN(C4c5ccc(Cl)cc5CCc5cc(F)cnc54)CCN3C(=O)OC3CCCCC3)C2)cn1 (centres unmarked) [Example 287] |
| 128 to 134 °C | 0.05 to 30 nM | Cc1cn(C[C@@H]2CCCN(C(=O)[C@H]3CN([C@@H]4c5ccc(Cl)cc5CCc5cc(F)cnc54)CCN3C(=O)OC3CCCCC3)C2)cn1 [Example 288] |
| 120 to 126 °C | 0.05 to 30 nM | Cc1cn(C[C@H]2CCCN(C(=O)[C@H]3CN([C@H]4c5ccc(Cl)cc5CCc5cc(F)cnc54)CCN3C(=O)OC3CCCCC3)C2)cn1 [Example 289] |
| 121 to 125 °C | 0.05 to 30 nM | Cc1cn(C[C@H]2CCCN(C(=O)[C@H]3CN([C@@H]4c5ccc(Cl)cc5CCc5cc(F)cnc54)CCN3C(=O)OC3CCCCC3)C2)cn1 [Example 290] |
| 95 to 105 °C | 0.05 to 30 nM | Cc1cn(CC2CCCN(C(=O)C3CN(C4c5ccccc5CCc5cc(Cl)cnc54)CCN3C(=O)OC(C)(C)C)C2)cn1 (centres unmarked) [Example 292] |
| 102 to 118 °C | 0.05 to 30 nM | Cc1cn(C[C@H]2CCCN(C(=O)[C@H]3CN([C@@H]4c5ccccc5CCc5cc(Cl)cnc54)CCN3C(=O)OC(C)(C)C)C2)cn1 [Example 294] |
| 114 to 118 °C | 0.05 to 30 nM | Cc1cn(C[C@@H]2CCCN(C(=O)[C@H]3CN([C@H]4c5ccccc5CCc5cc(Cl)cnc54)CCN3C(=O)OC3CCCCC3)C2)cn1 [Example 319] |
| 115 to 120 °C | 0.05 to 30 nM | Cc1cn(C[C@@H]2CCCN(C(=O)[C@H]3CN([C@@H]4c5ccccc5CCc5cc(Cl)cnc54)CCN3C(=O)OC3CCCCC3)C2)cn1 [Example 320] |
| 112 to 121 °C | 0.05 to 30 nM | Cc1cn(C[C@H]2CCCN(C(=O)[C@H]3CN([C@H]4c5ccccc5CCc5cc(Cl)cnc54)CCN3C(=O)OC3CCCCC3)C2)cn1 [Example 321] |
| 117 to 125 °C | 0.05 to 30 nM | Cc1cn(C[C@H]2CCCN(C(=O)[C@H]3CN([C@@H]4c5ccccc5CCc5cc(Cl)cnc54)CCN3C(=O)OC3CCCCC3)C2)cn1 [Example 322] |
